The subject of data set [1] is BDNF and GluN2B expression in 293T cells. The data set is described as follows: RT-PCR of BDNF and GluN2B mRNA in 293T cells. It counts as cell-based, human. The settings on record: 6 hours after treating 293T cells, vs untreated group. As for the experimental part:
RT-PCR was used to measure the amount of BDNF and GluN2B in response to compounds of the present disclosure. 293T cells were dissociated using 0.05% Trypsin-EDTA solution and seeded in 24 well or 6 well dishes for RNA work. After incubation at 37° C. in a humidified atmosphere with 5% CO2 for 24 hours, the culture medium was replaced by a medium containing a series of concentrations of tested compounds diluted with the DMEM without FBS. Time course experiments were performed. The same volume of DMSO was used for negative control.
RNA was isolated from the cells after the compound treatment. After removing growth media, 0.3 to 0.4 mL of TRIzol™ per 1×10^5 to 10^7 cells were added directly to the culture dish to lyse the cells. […] RNA concentration was determined with the Thermo Scientific™ ρDrop™ plate. RNA quality was determined by measuring A230/260 and A260/280 ratio. […]
The PCR product was analyzed by agarose gel electrophoresis. […]
The BnH12 series drug according to the present disclosure was synthesized as a compound targeting HDAC4, which inhibits the expression of BDNF. […] In addition, it is known that the increase in the expression of BDNF increases the expression of GluN2B, and the mRNA level of GluN2B was also measured together with BDNF to measure the efficacy of BnH12001 in degrading HDAC4.

Data set [2] deals with SH-SY5Y cells. The data set is described as follows: Cytotoxicity test (CCK-8 cell viability) in SH-SY5Y cells. The data set is classed as cell-based, human. The settings on record: 0, 0.1, 1, 10, 100 μM. The protocol: Human undifferentiated neuroblastoma cell line SH-SY5Y and human embryonic kidney cell line (HEK)-293T were purchased from Korean Cell Line Bank (Korea) and Takara (Japan), respectively. Cells were grown in HyClone Minimal Essential Medium (MEM) and Dulbecco's Modified Eagle Medium (DMEM), respectively, supplemented with 10% (v/v) fetal bovine serum (FBS), penicillin (100 U/mL), and streptomycin ([…]). Cells were maintained in a humidified atmosphere of 95% air and 5% CO2 at 37° C. Cells were passaged 10 times at maximum. Cells were dissociated using 0.05% trypsin-EDTA solution and the cells were seeded in new culture dishes for maintenance.
To examine the cytotoxicity of compounds described herein in human cell lines, SH-SY5Y and 293T cells were used. […] Finally, 10 μL of CCK-8 reagent (Dojindo Laboratories, Rockville, MD) was added to each well, and after incubation at 37° C. for 3 minutes, the OD at 450 nm was measured using a multifunction microplate reader (Tecan Infinite M200 Pro). These measurements were compared to that of a control and expressed as a percentage of the control to calculate cell viability. The IC50 value was calculated using SPSS software. To do this, the absorbance of the blank wells with only growth medium is subtracted from the values or the wells with cells. […]

Data set [3] has as its system APP/PS1 mice hippocampus (Schaffer collateral-CA1). The data set is described as follows: fEPSP slope and LTP in hippocampus of Alzheimer's animal model. It counts as in vivo. The settings on record: 15 months old.
Description: For intravenous injection, the tail vein injection method was used. […] In the drug injection test, the compound was administered once a day for about 11 to 13 days. 5 mice were used for the compound administration group and the control group, respectively.
For TC or hippocampus slice preparation. 9 to 10 weeks-old male C57BL/6J mice were anesthetized with isoflurane. Then, the brain was rapidly cooled via transcardial perfusion with ice-cold sucrose-artificial cerebrospinal fluid (aCSF). The brain was removed and placed in ice-cold sucrose aCSF. Paracoronal slices were prepared at an angle of 50° relative to the midline on a ramp at an angle of 10°. […]
Field recordings were made with a concentric bipolar electrode positioned in the stratum radiatum of the CA1 region using an extracellular glass pipette (3.5 MΩ) filled with aCSF. […] In all fEPSP experiments, the test stimulation were measured prior to the beginning of all the experiments (30 μA) and a test-pulse stimulation strength that evokes 50% of the maximum fEPSP was used. Baseline synaptic responses was recorded for 30 minutes, and then long-term potentiation (LTP) was induced by high-frequency stimulation (HFS; 100 Hz, 4 trains, 1 s duration, 20 s inter-train interval). […]
Excitatory postsynaptic potential (EPSP) was recorded by the whole-cell patch clamp method using a patch clamp amplifier (molecular devices, USA). […]

For `CC1CCC(C(=O)O)CN1C(=O)Cc1ccc(F)cc1Cl` (racemic) [BnH12001, 1-(2-(2-chloro-4-fluorophenyl)acetyl)-6-methylpiperidine-3-carboxylic acid], in data set [1], the “BDNF mRNA level” value is given as “significantly increased” and the “GluN2B mRNA level” value is listed as “significantly increased”. Further, the “Change in cell viability” value in data set [2] is listed as “no significant change in cell viability”.
Take `C[C@@H]1CC[C@H](C(=O)O)CN1C(=O)Cc1ccc(F)cc1Cl` [BnH12001 enantiomer (3S,6R, 98%<), (3S,6R)-1-(2-(2-chloro-4-fluorophenyl)acetyl)-6-methylpiperidine-3-carboxylic acid]: in data set [3], the “Slope of fEPSP in CA1 region of Schaffer collateral circuit (synaptic efficacy)” value is on record as “increased synaptic efficacy” and the “Synaptic long-term potentiation (LTP) of the excitatory SC pathway” value is recorded as “significantly increased”.

Values taken from patent publication US20250188032A1, “NITROGEN-CONTAINING HETEROCYCLIC COMPOUNDS AND USES THEREOF” (BNH RESEARCH CO., LTD., priority 2022, published 2025).
